Data taken from publication PMC12527922, “Cocaine chemogenetics blunts drug-seeking by synthetic physiology” (Nature, 2025).
Where “and” joins values, the source holds several entries; their conditions need not be identical. Identical values can stand only once.

Tested on: GRABDA dopamine sensor, nucleus accumbens shell
Assay: Fibre photometry of dopamine (GRABDA) after cocaine administration
Type: in vivo, rat
Design: GRABDA dopamine response per dose (sheet 4i), individual rats / GRABDA dopamine response per dose (sheet 4i), Mean: unit not given here
Conditions: for GRABDA dopamine signal, Mean / GRABDA dopamine signal, individual rats: Cocaine 5 mg/kg; for GRABDA dopamine signal, AVG: ED Fig. 9a, Cocaine 10 mg/kg
Protocol: Male Sprague–Dawley rats were anaesthetized with isoflurane (1.5–2%) and then placed onto a stereotaxic frame (Kopf) and injected with AAV5-Syn::coca-5HT3-IRES-mCherry (0.5 µl, 4.95 × 10^12 vg per ml) into the LHb (AP, −3.8 mm relative to bregma; ML, ±0.7 mm; DV, −5.25 mm, at a 10° angle) (n = 5) or underwent sham surgery (n = 6). Rats were also implanted with an optic fibre (400 µm core, 0.50 NA) attached to a 2.5 mm diameter ferrule (Thorlabs) directed to the medial shell of the nucleus accumbens (AP, +1.7 mm relative to bregma; ML, ±0.9 mm; DV, −7.0 mm). To ensure that AAV9-Syn::GRABDA1m was transduced at the direct vicinity of the fibre tip, we coated the fibre with the AAV (0.4 µl, 5 × 10^12 vg per ml) using a silk fibroin film before its implantation as previously described.
For fibre photometry, dopamine (GRABDA) dynamics were measured using a Tucker-Davis Technologies (TDT) system in anaesthetized rats. […] Data were acquired at 1 kHz. On the testing day, rats were anaesthetized (isoflurane: induction, 5%; maintenance, 3%) and attached to a photometry patch cord (400 μm core, 0.50 NA). GRABDA signals were then collected for 5 min, followed by a saline i.p. injection, and additional GRABDA signal measurement for 20 min. Cocaine was then injected i.p. at 20, 10 or 5 mg per kg, and the GRABDA signal was measured for an additional 20 min. Each rat was tested three times with cocaine doses administered in randomized order. Fibre photometry analyses were performed using scripts in MATLAB R2023b (MathWorks) based on codes from the Barker (https://github.com/djamesbarker)[64] and Lerner (https://github.com/talialerner/)[65] laboratories. […] The GRABDA signal was normalized to values at 1 min before saline or cocaine injection and shown as the average z-scored activity per min. […] Fibre photometry data are represented as mean ± s.e.m. Statistical analyses were performed using Prism 10 (GraphPad).

Structure (SMILES): COC(=O)[C@H]1[C@@H](OC(=O)c2ccccc2)C[C@@H]2CC[C@H]1N2C [cocaine]
- GRABDA dopamine response per dose (sheet 4i), Mean (Coca-5HT3 rats, Dose 5 mg/kg): -63058.3
- GRABDA dopamine response per dose (sheet 4i), individual rats (Coca-5HT3 rats, Dose 5 mg/kg): -172031 and 384223 and 532188 and -477527 and -582145
- GRABDA dopamine response per dose (sheet 4i), Mean (Coca-5HT3 rats, Dose 10 mg/kg): 347550
- GRABDA dopamine response per dose (sheet 4i), individual rats (Coca-5HT3 rats, Dose 10 mg/kg): 537591 and 787483 and 404806 and 428321 and -420452
- GRABDA dopamine response per dose (sheet 4i), Mean (Coca-5HT3 rats, Dose 20 mg/kg): 29421.8
- GRABDA dopamine response per dose (sheet 4i), individual rats (Coca-5HT3 rats, Dose 20 mg/kg): -332785 and -760751 and 326619 and 420379 and 493647
- GRABDA dopamine signal, Mean (Time 0, sheet 4g, 6 rats): 0
- GRABDA dopamine signal, Mean (Time 0, sheet 4h, 5 rats): 0.3508
- GRABDA dopamine signal, Mean (Time 1, sheet 4g, 6 rats): 0.02583
- GRABDA dopamine signal, Mean (Time 1, sheet 4h, 5 rats): 0.1222
- GRABDA dopamine signal, Mean (Time 2, sheet 4g, 6 rats): 0.2299
- GRABDA dopamine signal, Mean (Time 2, sheet 4h, 5 rats): 0.04413
- GRABDA dopamine signal, Mean (Time 3, sheet 4g, 6 rats): 0.7586
- GRABDA dopamine signal, Mean (Time 3, sheet 4h, 5 rats): 0.02999
- GRABDA dopamine signal, individual rats (Time 4, sheet 4g): 0.7973 and 0.9252 and 2.611 and 0.5744 and 0.4159 and 0.8485
- GRABDA dopamine signal, Mean (Time 4, sheet 4g, 6 rats): 1.0287
- GRABDA dopamine signal, Mean (Time 4, sheet 4h, 5 rats): -0.002503
- GRABDA dopamine signal, individual rats (Time 5, sheet 4g): 1.23 and 1.254 and 3.178 and 1.255 and 0.28 and 0.3357
- GRABDA dopamine signal, Mean (Time 5, sheet 4g, 6 rats): 1.255
- GRABDA dopamine signal, Mean (Time 5, sheet 4h, 5 rats): 0.4003
- GRABDA dopamine signal, individual rats (Time 6, sheet 4g): 1.399 and 1.386 and 3.378 and 1.497 and 0.2966 and 0.5676
- GRABDA dopamine signal, Mean (Time 6, sheet 4g, 6 rats): 1.4208
- GRABDA dopamine signal, Mean (Time 6, sheet 4h, 5 rats): 0.7136
- GRABDA dopamine signal, individual rats (Time 7, sheet 4g): 1.395 and 1.753 and 3.423 and 2.3 and 0.321 and 1.639
- GRABDA dopamine signal, Mean (Time 7, sheet 4g, 6 rats): 1.805
- GRABDA dopamine signal, Mean (Time 7, sheet 4h, 5 rats): 0.8408
- GRABDA dopamine signal, individual rats (Time 8, sheet 4g): 1.672 and 1.969 and 3.288 and 2.2806 and 0.5769 and 1.2461
- GRABDA dopamine signal, Mean (Time 8, sheet 4g, 6 rats): 1.839
- GRABDA dopamine signal, Mean (Time 8, sheet 4h, 5 rats): 0.8223
- GRABDA dopamine signal, individual rats (Time 9, sheet 4g): 1.777 and 2.101 and 2.8254 and 2.6993 and 0.4303 and 1.7436
- GRABDA dopamine signal, Mean (Time 9, sheet 4g, 6 rats): 1.93
- GRABDA dopamine signal, Mean (Time 9, sheet 4h, 5 rats): 0.8303
- GRABDA dopamine signal, individual rats (Time 10, sheet 4g): 1.667 and 2.313 and 2.507 and 2.586 and 1.167 and 0.977
- GRABDA dopamine signal, Mean (Time 10, sheet 4g, 6 rats): 1.869
- GRABDA dopamine signal, Mean (Time 10, sheet 4h, 5 rats): 0.9165
- GRABDA dopamine signal, individual rats (Time 11, sheet 4g): 1.6386 and 2.495 and 2.468 and 3.874 and 0.606 and 2.597
- GRABDA dopamine signal, Mean (Time 11, sheet 4g, 6 rats): 2.28
- GRABDA dopamine signal, Mean (Time 11, sheet 4h, 5 rats): 0.6597
- GRABDA dopamine signal, individual rats (Time 12, sheet 4g): 1.957 and 2.546 and 2.0788 and 2.652 and 0.8197 and 2.605
- GRABDA dopamine signal, Mean (Time 12, sheet 4g, 6 rats): 2.11
- GRABDA dopamine signal, Mean (Time 12, sheet 4h, 5 rats): 0.5883
- GRABDA dopamine signal, individual rats (Time 13, sheet 4g): 1.603 and 2.238 and 1.918 and 2.979 and 1.082 and 2.101
- GRABDA dopamine signal, Mean (Time 13, sheet 4g, 6 rats): 1.987
- GRABDA dopamine signal, Mean (Time 13, sheet 4h, 5 rats): 0.5593
- GRABDA dopamine signal, individual rats (Time 14, sheet 4g): 1.849 and 2.2953 and 1.648 and 2.627 and 1.351 and 2.787
- GRABDA dopamine signal, Mean (Time 14, sheet 4g, 6 rats): 2.093
- GRABDA dopamine signal, Mean (Time 14, sheet 4h, 5 rats): 0.3765
- GRABDA dopamine signal, individual rats (Time 15, sheet 4g): 1.345 and 2.273 and 1.221 and 3.749 and 1.032 and 2.415
- GRABDA dopamine signal, Mean (Time 15, sheet 4g, 6 rats): 2.006
- GRABDA dopamine signal, Mean (Time 15, sheet 4h, 5 rats): 0.2825
- GRABDA dopamine signal, individual rats (Time 16, sheet 4g): 1.5856 and 2.161 and 1.005 and 2.897 and 1.378 and 2.623
- GRABDA dopamine signal, Mean (Time 16, sheet 4g, 6 rats): 1.942
- GRABDA dopamine signal, Mean (Time 16, sheet 4h, 5 rats): 0.2717
- GRABDA dopamine signal, individual rats (Time 17, sheet 4g): 1.282 and 2.066 and 0.8019 and 2.5132 and 1.107 and 1.846
- GRABDA dopamine signal, Mean (Time 17, sheet 4g, 6 rats): 1.6029
- GRABDA dopamine signal, Mean (Time 17, sheet 4h, 5 rats): 0.2019
- GRABDA dopamine signal, individual rats (Time 18, sheet 4g): 1.176 and 1.956 (2×) and 0.485 and 2.977 and 1.512
- GRABDA dopamine signal, Mean (Time 18, sheet 4g, 6 rats): 1.677
- GRABDA dopamine signal, Mean (Time 18, sheet 4h, 5 rats): 0.2838
- GRABDA dopamine signal, individual rats (Time 19, sheet 4g): 1.43 and 1.847 and 0.2727 and 2.8958 and 1.19 and 1.677
- GRABDA dopamine signal, Mean (Time 19, sheet 4g, 6 rats): 1.552
- GRABDA dopamine signal, Mean (Time 19, sheet 4h, 5 rats): 0.4407
- GRABDA dopamine signal, individual rats (Time -1, sheet 4g): 0.1891 and 0.00306 and 0.03687 and -0.1715
- GRABDA dopamine signal, Mean (Time -1, sheet 4g, 6 rats): 0.08979
- GRABDA dopamine signal, Mean (Time -1, sheet 4h, 5 rats): -0.1218
- GRABDA dopamine response per dose (sheet 4i), Mean (Control rats, Dose 5 mg/kg): 575620
- GRABDA dopamine response per dose (sheet 4i), individual rats (Control rats, Dose 5 mg/kg): 1106356 and 625102 and 499430 and 534300 and 481000 and 207530
- GRABDA dopamine response per dose (sheet 4i), Mean (Control rats, Dose 10 mg/kg): 513482
- GRABDA dopamine response per dose (sheet 4i), individual rats (Control rats, Dose 10 mg/kg): 1063773 and 869765 and 258346 and 365520 and 172520 and 350970
- GRABDA dopamine response per dose (sheet 4i), Mean (Control rats, Dose 20 mg/kg): 564660
- GRABDA dopamine response per dose (sheet 4i), individual rats (Control rats, Dose 20 mg/kg): 543312 and 940737 and 382973 and 597550 and 499710 and 423680
- GRABDA dopamine signal, AVG (Time 0): 0.01595
- GRABDA dopamine signal, AVG (Time 1): 0.04899
- GRABDA dopamine signal, AVG (Time 2): 0.1402
- GRABDA dopamine signal, AVG (Time 3): 0.549
- GRABDA dopamine signal, AVG (Time 4): 0.7571
